Columns and labels:
Assay type in all cases: cell-based
[1] = tested on: HeLa (human cervical cancer cell line); assay: MTT assay, in vitro anticancer activity, HeLa; conditions: 48 h treatment
Description: (§1) The synthesized compounds 7(a–l) were evaluated for their in vitro anticancer activity against MCF-7 (human breast cancer cell line), HeLa (human cervical cancer cell line), SKMEL-2 (human melanoma cancer cell line) and HL-60 (human leukemia cancer cell line) cancer cell lines, as shown in Table 2. […] The GI50 values (the concentration required to achieve a growth inhibition of 50%) for the synthesized compounds were determined by MTT assay method. The in vitro anticancer evaluation results and GI50 values were listed in Table 2, and the well-known anticancer drug Adriamycin was used as positive control.
(§2) The synthesized compounds 7(a–l) were evaluated for their in vitro anticancer activity against MCF-7 (human breast cancer cell line), HeLa (human cervical cancer cell line), SKMEL-2 (human melanoma cancer cell line) and HL-60 (human leukemia cancer cell line) cancer cell lines. The GI50 values (concentration required to Growth inhibition of 50%) for the synthesized compounds were determined using the MTT assays method.
(§3) The stock solutions of test compounds were prepared in DMSO. After 24 h incubation, different concentrations (2, 4, 6, 8 µM) of compounds, made by serial dilution in culture medium, were added in 48 h incubation. The final concentration of DMSO was 0.01% in each well. […] The cell growth was determined using MTT (3-(4,5-dimethylthiazol-2-yl)-2,5-diphenyl tetrazolium bromide (Sigma, St. Louis, MO, USA) reduction assay, which is based on the ability of viable cells to reduce a soluble yellow tetrazolium salt to blue formazan crystal. Briefly, after 48 h of treatments, the 10 µl of MTT dye, prepared in phosphate buffered saline (PBS) was added to all wells. The plates were then incubated for 4 h at 37 °C. Supernatant from each well was carefully removed, formazon crystals were dissolved in 100 µL of DMSO and absorbance at 540 nm wavelength was recorded and each concentration was tested in threefold. The GI50 values were determined as concentration of compounds that inhibited cancer cell growth by 50%.

[2] = tested on: SKMEL-2 (human melanoma cancer cell line); assay: MTT assay, in vitro anticancer activity, SKMEL-2; conditions: SK-MEL-2, 48 h treatment
Description: as §1, §2, §3

[3] = tested on: HL-60 (human leukemia cancer cell line); assay: MTT assay, in vitro anticancer activity, HL-60; conditions: 48 h treatment
Description: as §1, §2, §3

[4] = tested on: MCF-7 (human breast cancer cell line); assay: MTT assay, in vitro anticancer activity, MCF-7; conditions: MCF7, 48 h treatment
Description: as §1, §2, §3

[5] = MTT assay, cytotoxicity on non-tumorigenic cells, MCF-10A; conditions: human, MCF-10A non-tumorigenic breast epithelial cells; MTT, MCF-10A normal breast epithelial cells
Description: [The procedure below names another cell line; the source lists this cell line under the same test.] as §1, §3

[6] = tested on: MCF-10A normal breast epithelial cell lines; assay: as above; conditions: MCF-7 vs MCF-10A GI50
Description: [The procedure below names another cell line; the source lists this cell line under the same test.] as §1, §3

| Structure (SMILES) | GI50 [1] [µM] | GI50 [2] [µM] | GI50 [3] [µM] | GI50 [4] [µM] | GI50 at 48 h [5] [µM] | selectivity for MCF-7 cancer cell lines in comparison to MCF-10A normal breast epithelial cell lines [6] |
| --- | --- | --- | --- | --- | --- | --- |
| COc1cccc2c1C(=O)c1c(O)c3c(c(O)c1C2=O)C[C@@](O)(C(=O)CO)C[C@@H]3O[C@H]1C[C@H](N)[C@H](O)[C@H](C)O1 [ADR, Adriamycin, reference compound] | < 10 | < 10 | < 10 | < 10 |  |  |
| O=C(NCc1nnc(/N=C/c2ccc(Cl)cc2)s1)c1ccccc1 [Compound 7a, (E)-N-((5-(4-Chlorobenzylideneamino)-1,3,4-thiadiazol-2-yl)methyl) benzamide] | 32.8 | 21.9 | 21.7 | 22.9 | > 100 |  |
| O=C(NCc1nnc(/N=C/c2ccc(Cl)cc2Cl)s1)c1ccccc1 [Compound 7b, (E)-N-((5-(2,4-Dichlorobenzylideneamino)-1,3,4-thiadiazol-2-yl)methyl) benzamide] | 39 | 22.9 | 28.2 | 28.7 | 86.1 | three |
| O=C(NCc1nnc(/N=C/c2ccc(O)cc2)s1)c1ccccc1 [Compound 7c, (E)-N-((5-(4-Hydroxybenzylideneamino)-1,3,4-thiadiazol-2-yl)methyl) benzamide] | 41.1 | 27.5 | 33.3 | 32.4 |  |  |
| O=C(NCc1nnc(/N=C/c2ccccc2O)s1)c1ccccc1 [Compound 7d, (E)-N-((5-(2-Hydroxybenzylideneamino)-1,3,4-thiadiazol-2-yl)methyl) benzamide] | 52.4 | 34 | 40.2 | 36.7 |  |  |
| COc1ccc(/C=N/c2nnc(CNC(=O)c3ccccc3)s2)cc1 [Compound 7g, (E)-N-((5-(4-Methoxybenzylideneamino)-1,3,4-thiadiazol-2-yl)methyl) benzamide] | 66.1 | 46.4 | 42.4 | 41 |  |  |
| COc1cc(OC)c(OC)cc1/C=N/c1nnc(CNC(=O)c2ccccc2)s1 [Compound 7j, (E)-N-((5-(2,4,5-Trimethoxybenzylideneamino)-1,3,4-thiadiazol-2-yl)methyl) benzamide] | 78.8 | 55.7 | 49.9 | 51.4 |  |  |
| O=C(NCc1nnc(/N=C/c2ccco2)s1)c1ccccc1 [Compound 7k, (E)-N-((5-(Furan-2-ylmethyleneamino)-1,3,4-thiadiazol-2-yl)methyl) benzamide] | 23.8 | 19.6 | 35.5 | 11.7 | > 100 |  |
| O=C(NCc1nnc(/N=C/c2cccs2)s1)c1ccccc1 [Compound 7l, (E)-N-((5-(Thiophen-2-ylmethyleneamino)-1,3,4-thiadiazol-2-yl)methyl) benzamide] | 28.8 | 22 | 29.9 | 19 | > 100 |  |

More lines, main results first:

| GI50 [1] [µM] | GI50 [2] [µM] | GI50 [3] [µM] | GI50 [4] [µM] | Structure (SMILES) | GI50 at 48 h [5] [µM] | selectivity for MCF-7 cancer cell lines in comparison to MCF-10A normal breast epithelial cell lines [6] |
| --- | --- | --- | --- | --- | --- | --- |
| 46.8 | 28.1 | 39.6 | 35.2 | COc1cc(/C=N/c2nnc(CNC(=O)c3ccccc3)s2)ccc1O [Compound 7e, (E)-N-((5-(4-Hydroxy-3-methoxybenzylideneamino)-1,3,4-thiadiazol-2-yl)methyl) benzamide] |  |  |
| 49.2 | 30 | 37.5 | 38.4 | CCOc1cc(/C=N/c2nnc(CNC(=O)c3ccccc3)s2)ccc1O [Compound 7f, (E)-N-((5-(3-Ethoxy-4-hydroxybenzylideneamino)-1,3,4-thiadiazol-2-yl)methyl) benzamide] |  |  |
| 71.7 | 49.1 | 48.2 | 46.2 | COc1ccc(/C=N/c2nnc(CNC(=O)c3ccccc3)s2)cc1OC [Compound 7h, (E)-N-((5-(3,4-Dimethoxybenzylideneamino)-1,3,4-thiadiazol-2-yl)methyl) benzamide] |  |  |
| 78 | 52.6 | 45.8 | 49 | COc1cc(/C=N/c2nnc(CNC(=O)c3ccccc3)s2)cc(OC)c1OC [Compound 7i, (E)-N-((5-(3,4,5-Trimethoxybenzylideneamino)-1,3,4-thiadiazol-2-yl)methyl) benzamide] |  |  |

Source: article PMC6152631, “Microwave-Assisted Facile Synthesis, Anticancer Evaluation and Docking Study of N-((5-(Substituted methylene amino)-1,3,4-thiadiazol-2-yl)methyl) Benzamide Derivatives” (Molecules : A Journal of Synthetic Chemistry and Natural …, 2017)
